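Step 1: Grow cells in 96-well plates. Step 2: Expose to compound for 48 hours at 5 concentrations. Step 3: Interpolate endpoints linearly; if unreached, use highest concentration. TGI denotes the concentration required for complete inhibition of growth.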
What was measured:
Assay in all cases: inhibition of tumour cell growth, NCI panel, 48 h
PC-3 prostate = tested on: PC-3 prostate
K-562 leukemia = tested on: K-562 leukemia
HOP-92 NSCLC = tested on: HOP-92 NSCLC
UO-31 renal = tested on: UO-31 renal
TK-10 renal = tested on: TK-10 renal
MOLT-4 leukemia = tested on: MOLT-4 leukemia
HOP-62 NSCLC = tested on: HOP-62 NSCLC
HCT-15 colon = tested on: HCT-15 colon
SN12C renal = tested on: SN12C renal
MDA-N = tested on: MDA-N
UACC-257 melanoma = tested on: UACC-257 melanoma
U251 CNS = tested on: U251 CNS
M14 melanoma = tested on: M14 melanoma
HS 578T breast = tested on: HS 578T breast
CAKI-1 renal = tested on: CAKI-1 renal
SR leukemia = tested on: SR leukemia
SF-295 CNS = tested on: SF-295 CNS
KM12 colon = tested on: KM12 colon
MDA-MB-435 = tested on: MDA-MB-435
MALME-3M melanoma = tested on: MALME-3M melanoma
786-0 renal = tested on: 786-0 renal
A498 renal = tested on: A498 renal
SK-MEL-5 melanoma = tested on: SK-MEL-5 melanoma
SNB-19 CNS = tested on: SNB-19 CNS
COLO 205 colon = tested on: COLO 205 colon
SK-OV-3 ovarian = tested on: SK-OV-3 ovarian
OVCAR-4 ovarian = tested on: OVCAR-4 ovarian
OVCAR-8 ovarian = tested on: OVCAR-8 ovarian
OVCAR-5 ovarian = tested on: OVCAR-5 ovarian
SK-MEL-2 melanoma = tested on: SK-MEL-2 melanoma
A549 NSCLC = tested on: A549 NSCLC
ACHN renal = tested on: ACHN renal
LOX IMVI melanoma = tested on: LOX IMVI melanoma
NCI/ADR-RES ovarian = tested on: NCI/ADR-RES ovarian
NCI-H226 lung = tested on: NCI-H226 lung
NCI-H23 lung = tested on: NCI-H23 lung
HCC-2998 colon = tested on: HCC-2998 colon
BT-549 breast = tested on: BT-549 breast
UACC-62 melanoma = tested on: UACC-62 melanoma
EKVX NSCLC = tested on: EKVX NSCLC
SF-268 CNS = tested on: SF-268 CNS
MDA-MB-231 breast = tested on: MDA-MB-231 breast
MCF7 breast = tested on: MCF7 breast
NCI-H522 lung = tested on: NCI-H522 lung
T-47D breast = tested on: T-47D breast
HCT-116 colon = tested on: HCT-116 colon
HT29 colon = tested on: HT29 colon
SK-MEL-28 melanoma = tested on: SK-MEL-28 melanoma
OVCAR-3 ovarian = tested on: OVCAR-3 ovarian
SW-620 colon = tested on: SW-620 colon
NCI-H460 lung = tested on: NCI-H460 lung
RPMI-8226 leukemia = tested on: RPMI-8226 leukemia
RXF 393 renal = tested on: RXF 393 renal
IGROV1 ovarian = tested on: IGROV1 ovarian
SF-539 CNS = tested on: SF-539 CNS
SNB-75 CNS = tested on: SNB-75 CNS
HL-60(TB) leukemia = tested on: HL-60(TB) leukemia

SMILES: COc1ccccc1N1C(=O)/C(=C\c2ccccc2)SC1c1cc(OC)c(OC)c(OC)c1 (stereo not drawn)
- TGI (PC-3 prostate): 68.9 µM
- TGI (K-562 leukemia): > 100 µM
- TGI (HOP-92 NSCLC): > 100 µM
- TGI (UO-31 renal): > 100 µM
- TGI (TK-10 renal): > 100 µM
- TGI (MOLT-4 leukemia): > 100 µM
- TGI (HOP-62 NSCLC): > 100 µM
- TGI (HCT-15 colon): > 100 µM
- TGI (SN12C renal): 87.9 µM
- TGI (MDA-N): 48.6 µM
- TGI (UACC-257 melanoma): > 100 µM
- TGI (U251 CNS): 74.2 µM
- TGI (M14 melanoma): > 100 µM
- TGI (HS 578T breast): > 100 µM
- TGI (CAKI-1 renal): > 100 µM
- TGI (SR leukemia): > 100 µM
- TGI (SF-295 CNS): > 100 µM
- TGI (KM12 colon): > 100 µM
- TGI (MDA-MB-435): 46.5 µM
- TGI (MALME-3M melanoma): > 100 µM
- TGI (786-0 renal): > 100 µM
- TGI (A498 renal): > 100 µM
- TGI (SK-MEL-5 melanoma): > 100 µM
- TGI (SNB-19 CNS): > 100 µM
- TGI (COLO 205 colon): > 100 µM
- TGI (SK-OV-3 ovarian): > 100 µM
- TGI (OVCAR-4 ovarian): > 100 µM
- TGI (OVCAR-8 ovarian): > 100 µM
- TGI (OVCAR-5 ovarian): > 100 µM
- TGI (SK-MEL-2 melanoma): 33 µM
- TGI (A549 NSCLC): > 100 µM
- TGI (ACHN renal): > 100 µM
- TGI (LOX IMVI melanoma): 50.3 µM
- TGI (NCI/ADR-RES ovarian): > 100 µM
- TGI (NCI-H226 lung): > 100 µM
- TGI (NCI-H23 lung): > 100 µM
- TGI (HCC-2998 colon): > 100 µM
- TGI (BT-549 breast): > 100 µM
- TGI (UACC-62 melanoma): > 100 µM
- TGI (EKVX NSCLC): > 100 µM
- TGI (SF-268 CNS): > 100 µM
- TGI (MDA-MB-231 breast): 71.3 µM
- TGI (MCF7 breast): > 100 µM
- TGI (NCI-H522 lung): 74.3 µM
- TGI (T-47D breast): 37.8 µM
- TGI (HCT-116 colon): > 100 µM
- TGI (HT29 colon): > 100 µM
- TGI (SK-MEL-28 melanoma): > 100 µM

SMILES: COc1ccccc1NC(=O)C(=O)C(C#N)CC(C)(C)C=O (stereo not drawn)
- TGI (PC-3 prostate): > 100 µM
- TGI (K-562 leukemia): > 100 µM
- TGI (HOP-92 NSCLC): > 100 µM
- TGI (UO-31 renal): > 100 µM
- TGI (TK-10 renal): > 100 µM
- TGI (OVCAR-3 ovarian): > 100 µM
- TGI (MOLT-4 leukemia): > 100 µM
- TGI (HOP-62 NSCLC): > 100 µM
- TGI (HCT-15 colon): > 100 µM
- TGI (SW-620 colon): > 100 µM
- TGI (SN12C renal): > 100 µM
- TGI (MDA-N): > 100 µM
- TGI (NCI-H460 lung): > 100 µM
- TGI (UACC-257 melanoma): > 100 µM
- TGI (U251 CNS): > 100 µM
- TGI (M14 melanoma): > 100 µM
- TGI (HS 578T breast): > 100 µM
- TGI (RPMI-8226 leukemia): > 100 µM
- TGI (CAKI-1 renal): > 100 µM
- TGI (SR leukemia): > 100 µM
- TGI (SF-295 CNS): > 100 µM
- TGI (KM12 colon): > 100 µM
- TGI (MDA-MB-435): > 100 µM
- TGI (MALME-3M melanoma): > 100 µM
- TGI (786-0 renal): > 100 µM
- TGI (A498 renal): > 100 µM
- TGI (SK-MEL-5 melanoma): > 100 µM
- TGI (SK-OV-3 ovarian): > 100 µM
- TGI (OVCAR-4 ovarian): > 100 µM
- TGI (OVCAR-8 ovarian): > 100 µM
- TGI (RXF 393 renal): > 100 µM
- TGI (IGROV1 ovarian): > 100 µM
- TGI (OVCAR-5 ovarian): > 100 µM
- TGI (SK-MEL-2 melanoma): > 100 µM
- TGI (A549 NSCLC): > 100 µM
- TGI (ACHN renal): > 100 µM
- TGI (LOX IMVI melanoma): > 100 µM
- TGI (SF-539 CNS): > 100 µM
- TGI (NCI/ADR-RES ovarian): > 100 µM
- TGI (SNB-75 CNS): > 100 µM
- TGI (NCI-H226 lung): > 100 µM
- TGI (NCI-H23 lung): > 100 µM
- TGI (HCC-2998 colon): > 100 µM
- TGI (BT-549 breast): > 100 µM
- TGI (UACC-62 melanoma): > 100 µM
- TGI (EKVX NSCLC): > 100 µM
- TGI (HL-60(TB) leukemia): > 100 µM
- TGI (SF-268 CNS): > 100 µM
- TGI (MDA-MB-231 breast): > 100 µM
- TGI (MCF7 breast): > 100 µM
- TGI (NCI-H522 lung): > 100 µM
- TGI (T-47D breast): > 100 µM
- TGI (HCT-116 colon): > 100 µM
- TGI (HT29 colon): > 100 µM
- TGI (SK-MEL-28 melanoma): > 100 µM
